Experimental data from patent publication US20230064983A1 (priority 2020, published 2023).
Each block holds one molecule with its values, some of them ahead of it.

What was measured:
Type in all cases: cell-based
[1] = target: Ba/F3-EGFR-E746_A750del C797S cells (Homo sapiens, UniProt P00533, DEL746-750/C797S, cells depend on it); experiment: Ba/F3 cell survival assay, EGFR E746_A750del C797S; conditions: aquired resistance space; Table 8; read-out: BA/F3 (EGFR E746_A750del C797S) IC50
[2] = target: Ba/F3-EGFR-L858R C797S cells (Homo sapiens, UniProt P00533, C797S/L858R, cells depend on it); experiment: Ba/F3 cell survival assay, EGFR L858R C797S; conditions: aquired resistance space; Table 8; read-out: BA/F3 (EGFR L858R C797S) IC50
Ba/F3-EGFR-L858R C797S cells, sequence (P00533 whole entry C797S/L858R): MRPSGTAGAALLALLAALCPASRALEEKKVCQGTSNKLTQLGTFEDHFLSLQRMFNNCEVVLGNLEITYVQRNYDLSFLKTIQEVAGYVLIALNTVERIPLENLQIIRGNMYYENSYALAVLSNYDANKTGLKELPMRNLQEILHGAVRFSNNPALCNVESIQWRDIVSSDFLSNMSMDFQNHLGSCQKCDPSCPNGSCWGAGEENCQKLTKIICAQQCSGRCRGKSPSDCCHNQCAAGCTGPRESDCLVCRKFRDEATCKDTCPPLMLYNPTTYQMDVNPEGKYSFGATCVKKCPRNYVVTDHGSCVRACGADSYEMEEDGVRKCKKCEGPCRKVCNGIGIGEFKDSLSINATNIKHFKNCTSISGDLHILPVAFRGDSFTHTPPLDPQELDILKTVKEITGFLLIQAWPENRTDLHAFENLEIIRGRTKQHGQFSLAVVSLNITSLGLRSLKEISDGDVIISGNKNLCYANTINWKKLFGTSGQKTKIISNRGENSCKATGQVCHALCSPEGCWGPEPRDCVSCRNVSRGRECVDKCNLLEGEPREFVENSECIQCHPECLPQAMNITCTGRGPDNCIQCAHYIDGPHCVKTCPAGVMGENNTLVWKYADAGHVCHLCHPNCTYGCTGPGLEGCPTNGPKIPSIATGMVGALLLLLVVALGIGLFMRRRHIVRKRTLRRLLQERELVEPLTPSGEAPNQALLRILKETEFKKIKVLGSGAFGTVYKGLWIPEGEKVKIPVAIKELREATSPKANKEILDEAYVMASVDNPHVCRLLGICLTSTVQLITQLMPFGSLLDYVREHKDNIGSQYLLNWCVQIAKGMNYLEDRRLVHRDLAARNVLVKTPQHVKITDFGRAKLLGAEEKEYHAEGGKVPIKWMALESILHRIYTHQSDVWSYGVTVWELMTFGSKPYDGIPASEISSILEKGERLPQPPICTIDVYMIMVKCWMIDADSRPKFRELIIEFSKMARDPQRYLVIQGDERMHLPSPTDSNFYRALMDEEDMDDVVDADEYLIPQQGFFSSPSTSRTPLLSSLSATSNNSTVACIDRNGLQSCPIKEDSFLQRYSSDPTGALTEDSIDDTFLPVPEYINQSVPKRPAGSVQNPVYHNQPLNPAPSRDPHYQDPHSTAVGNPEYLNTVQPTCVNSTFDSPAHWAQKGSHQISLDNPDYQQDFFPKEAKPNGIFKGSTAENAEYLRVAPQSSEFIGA

[3] = target: Ba/F3-EGFR-L858R cells (Homo sapiens, UniProt P00533, L858R, cells depend on it); experiment: Ba/F3 cell survival assay, EGFR L858R; conditions: classical activating and rare EGFR mutations; Table 7; read-out: BA/F3 (EGFR L858R) IC50
Ba/F3-EGFR-L858R cells, sequence (P00533 whole entry L858R): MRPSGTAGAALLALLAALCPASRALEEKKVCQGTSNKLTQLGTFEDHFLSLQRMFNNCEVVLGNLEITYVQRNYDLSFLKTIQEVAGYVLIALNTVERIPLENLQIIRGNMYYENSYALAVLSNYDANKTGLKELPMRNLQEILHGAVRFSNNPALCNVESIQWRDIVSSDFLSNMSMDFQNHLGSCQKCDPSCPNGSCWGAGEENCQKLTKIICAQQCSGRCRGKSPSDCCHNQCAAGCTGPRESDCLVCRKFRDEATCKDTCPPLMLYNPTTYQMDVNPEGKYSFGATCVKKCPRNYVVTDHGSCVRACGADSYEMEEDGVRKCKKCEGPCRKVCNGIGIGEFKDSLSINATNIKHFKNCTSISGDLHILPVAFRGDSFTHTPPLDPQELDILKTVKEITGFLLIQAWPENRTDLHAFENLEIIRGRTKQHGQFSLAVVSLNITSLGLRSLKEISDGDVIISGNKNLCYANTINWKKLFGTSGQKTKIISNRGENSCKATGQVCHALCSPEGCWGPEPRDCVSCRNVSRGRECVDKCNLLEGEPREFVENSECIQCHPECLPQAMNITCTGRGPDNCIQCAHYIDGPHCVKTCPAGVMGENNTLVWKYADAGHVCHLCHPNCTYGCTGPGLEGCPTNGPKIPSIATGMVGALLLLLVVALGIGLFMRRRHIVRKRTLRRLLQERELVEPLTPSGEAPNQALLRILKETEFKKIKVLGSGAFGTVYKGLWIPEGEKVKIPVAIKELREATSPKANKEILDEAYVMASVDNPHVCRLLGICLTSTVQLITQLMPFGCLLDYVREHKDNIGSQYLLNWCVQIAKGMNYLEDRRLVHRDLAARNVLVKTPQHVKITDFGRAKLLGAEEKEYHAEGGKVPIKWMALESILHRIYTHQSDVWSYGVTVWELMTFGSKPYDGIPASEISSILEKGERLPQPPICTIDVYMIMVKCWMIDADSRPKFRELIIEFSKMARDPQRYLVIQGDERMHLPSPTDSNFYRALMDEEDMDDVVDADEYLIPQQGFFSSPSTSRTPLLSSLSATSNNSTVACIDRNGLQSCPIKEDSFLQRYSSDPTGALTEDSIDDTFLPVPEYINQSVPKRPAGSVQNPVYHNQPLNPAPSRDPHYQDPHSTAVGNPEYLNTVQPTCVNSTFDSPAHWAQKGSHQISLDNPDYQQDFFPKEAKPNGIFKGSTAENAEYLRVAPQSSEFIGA

[4] = target: Ba/F3-EGFR-E746_A750del cells (Homo sapiens, UniProt P00533, DEL746-750, cells depend on it); experiment: Ba/F3 cell survival assay, EGFR E746_A750del; conditions: classical activating and rare EGFR mutations; Table 7; read-out: BA/F3 (EGFR E746_A750del) IC50
Ba/F3-EGFR-E746_A750del cells, sequence (P00533 with tags, fused parts or gaps DEL746-750): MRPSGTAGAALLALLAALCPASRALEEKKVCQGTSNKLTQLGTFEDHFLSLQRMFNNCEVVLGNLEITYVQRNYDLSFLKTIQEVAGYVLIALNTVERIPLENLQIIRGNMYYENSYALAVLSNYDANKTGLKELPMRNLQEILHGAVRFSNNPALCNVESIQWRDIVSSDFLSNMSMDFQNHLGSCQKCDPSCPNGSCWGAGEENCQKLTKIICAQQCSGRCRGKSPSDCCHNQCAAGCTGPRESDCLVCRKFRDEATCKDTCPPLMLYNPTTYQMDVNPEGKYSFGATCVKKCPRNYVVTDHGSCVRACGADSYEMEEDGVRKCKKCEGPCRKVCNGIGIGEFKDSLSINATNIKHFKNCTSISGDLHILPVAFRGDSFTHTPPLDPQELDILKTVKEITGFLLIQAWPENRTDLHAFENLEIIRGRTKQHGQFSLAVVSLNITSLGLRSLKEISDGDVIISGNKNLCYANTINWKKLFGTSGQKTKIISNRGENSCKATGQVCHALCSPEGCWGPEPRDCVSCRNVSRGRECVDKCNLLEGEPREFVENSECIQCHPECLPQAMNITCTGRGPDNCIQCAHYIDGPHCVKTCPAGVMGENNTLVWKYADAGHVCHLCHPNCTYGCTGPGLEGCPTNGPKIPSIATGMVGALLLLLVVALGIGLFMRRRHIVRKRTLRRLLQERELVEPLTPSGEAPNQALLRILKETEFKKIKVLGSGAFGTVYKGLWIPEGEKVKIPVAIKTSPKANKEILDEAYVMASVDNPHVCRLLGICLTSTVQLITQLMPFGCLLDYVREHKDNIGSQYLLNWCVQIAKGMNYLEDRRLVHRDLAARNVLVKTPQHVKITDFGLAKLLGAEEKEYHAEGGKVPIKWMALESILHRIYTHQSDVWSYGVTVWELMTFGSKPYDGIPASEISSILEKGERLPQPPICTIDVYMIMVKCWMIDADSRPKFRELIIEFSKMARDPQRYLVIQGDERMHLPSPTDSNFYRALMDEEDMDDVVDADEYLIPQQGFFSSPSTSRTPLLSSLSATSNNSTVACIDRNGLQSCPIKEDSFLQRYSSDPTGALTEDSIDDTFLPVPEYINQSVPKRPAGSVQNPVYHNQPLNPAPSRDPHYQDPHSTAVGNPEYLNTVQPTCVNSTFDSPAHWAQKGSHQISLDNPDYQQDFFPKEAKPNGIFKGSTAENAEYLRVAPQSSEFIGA

[5] = test system: HCC-827 cells; experiment: HCC-827 cell proliferation assay (EGFRex19del); conditions: Homo sapiens, HCC827, 72 h, read-out: HCC-827 IC50
Experimental: Cellular Data Description (HCC-827 cells, EGFRex19del)
HCC-827 cells were purchased from ATCC. […] cells per well were seeded in growth medium (RPM11640, 10% FCS) in a 384-well plate (CORNING #3571). Seed reference plate for time zero determination on the same day. All plates were incubated overnight at 37° C. After 24 hours, test compound were added in 7-step dilution using HP Compound printer and incubated at 37° C. for 72 h. After 3 days, 30 μL/well CTG solution (Promega Cell Titer Glo solution; catalog #G755B and G756B) were added to each well, incubated for 30 minutes and the plate were read on PheraStar. Proliferation is calculated after subtracting time zero luminescence values from day 4 values and comparing to untreated wells.
The IC50 values were determined using the four parameter fit.

Ba/F3-EGFR-E746_A750del C797S cells, sequence (P00533 with tags, fused parts or gaps DEL746-750/C797S): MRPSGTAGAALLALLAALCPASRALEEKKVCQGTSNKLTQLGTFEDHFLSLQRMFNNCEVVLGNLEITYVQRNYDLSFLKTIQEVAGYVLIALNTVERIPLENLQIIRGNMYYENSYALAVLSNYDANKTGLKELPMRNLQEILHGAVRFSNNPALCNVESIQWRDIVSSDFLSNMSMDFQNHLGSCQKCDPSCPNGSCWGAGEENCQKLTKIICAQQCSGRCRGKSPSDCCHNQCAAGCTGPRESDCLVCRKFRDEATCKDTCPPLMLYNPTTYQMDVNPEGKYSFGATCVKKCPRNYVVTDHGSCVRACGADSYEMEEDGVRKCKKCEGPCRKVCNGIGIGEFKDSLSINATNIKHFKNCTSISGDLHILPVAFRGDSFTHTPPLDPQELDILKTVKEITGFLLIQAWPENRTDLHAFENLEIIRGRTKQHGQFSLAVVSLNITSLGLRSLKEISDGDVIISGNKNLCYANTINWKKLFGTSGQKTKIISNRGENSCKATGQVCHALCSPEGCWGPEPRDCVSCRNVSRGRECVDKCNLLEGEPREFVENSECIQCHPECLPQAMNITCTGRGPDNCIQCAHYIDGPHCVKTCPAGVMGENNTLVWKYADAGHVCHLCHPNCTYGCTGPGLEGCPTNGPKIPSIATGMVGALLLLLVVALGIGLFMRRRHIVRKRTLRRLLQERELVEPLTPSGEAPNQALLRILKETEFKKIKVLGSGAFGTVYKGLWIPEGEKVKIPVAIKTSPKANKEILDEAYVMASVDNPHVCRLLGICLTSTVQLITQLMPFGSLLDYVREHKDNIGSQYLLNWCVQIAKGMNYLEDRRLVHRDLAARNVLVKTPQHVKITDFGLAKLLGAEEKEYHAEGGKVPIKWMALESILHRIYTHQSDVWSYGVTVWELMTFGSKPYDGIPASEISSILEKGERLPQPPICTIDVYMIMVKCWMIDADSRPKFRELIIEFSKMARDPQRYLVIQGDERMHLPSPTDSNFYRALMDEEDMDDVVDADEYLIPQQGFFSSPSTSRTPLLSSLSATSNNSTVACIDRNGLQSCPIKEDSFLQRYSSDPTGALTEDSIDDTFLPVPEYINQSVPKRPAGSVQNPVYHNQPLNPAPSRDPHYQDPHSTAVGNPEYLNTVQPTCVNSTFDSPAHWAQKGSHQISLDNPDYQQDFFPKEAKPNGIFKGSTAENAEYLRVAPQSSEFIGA

SMILES: COCC(C)Oc1cnccc1-c1[nH]c2c(c1Nc1cccc(Cl)c1OC)C(=O)N[C@@H]1CCC[C@H]21 (single isomer, unassigned) [Example 51]
GI50 [1]: 0.564 nM | GI50 [2]: 1.32 nM | GI50 [3]: 1.32 nM | GI50 [4]: 1.05 nM | IC50 [5]: < 3 nM

SMILES: COc1c(Cl)cccc1Nc1c(-c2ccncc2OCCC2CCCCO2)[nH]c2c1C(=O)N[C@H](C)C2 (single isomer, unassigned) [Example 87]
GI50 [1]: 0.804 nM | GI50 [2]: 1.38 nM | GI50 [3]: 1.29 nM | GI50 [4]: 5 nM | IC50 [5]: < 3 nM

SMILES: COc1c(Cl)cccc1Nc1c(-c2ccncc2OCC2COCCO2)[nH]c2c1C(=O)NCC2C (single isomer, unassigned) [Example 34, 3-(3-chloro-2-methoxy-anilino)-2-[3-(1,4-dioxan-2-ylmethoxy)-4-pyridyl]-7-methyl-1,5,6,7-tetrahydropyrrolo[3,2-c]pyridin-4-one]
GI50 [1]: 0.795 nM | GI50 [2]: 3.07 nM | GI50 [3]: 2.76 nM | GI50 [4]: 1.19 nM | IC50 [5]: < 3 nM

Continued, in another order:

IC50 [5]: < 3 nM
SMILES: COc1c(Cl)cccc1Nc1c(-c2ccncc2OCCC(C)OC)[nH]c2c1C(=O)N[C@H](C)C2 (single isomer, unassigned) [Example 121]
GI50 [1]: 0.384 nM | GI50 [2]: 1.07 nM | GI50 [3]: 1.17 nM | GI50 [4]: 0.887 nM

IC50 [5]: < 3 nM
SMILES: COc1c(Cl)cccc1Nc1c(-c2ccncc2OC[C@@H]2CCCO2)[nH]c2c1C(=O)NC1(CC1)C2 [Example 113, 3′-(3-chloro-2-methoxyanilino)-2′-(3-{[(2S)-oxolan-2-yl]methoxy}pyridin-4-yl)-1′,7′-dihydrospiro[cyclopropane-1,6′-pyrrolo[3,2-c]pyridin]-4′(5′H)-one]
GI50 [1]: 1.1 nM | GI50 [2]: 5.07 nM | GI50 [3]: 3.71 nM | GI50 [4]: 0.989 nM

IC50 [5]: < 3 nM
SMILES: Cc1c(Cl)cccc1Nc1c(-c2ccncc2OCC2COCCO2)[nH]c2c1C(=O)NCC2C (single isomer, unassigned) [Example 67, 3-(3-chloro-2-methyl-anilino)-2-[3-(1,4-dioxan-2-ylmethoxy)-4-pyridyl]-7-methyl-1,5,6,7-tetrahydropyrrolo[3,2-c]pyridin-4-one]
GI50 [1]: 0.581 nM | GI50 [2]: 2.49 nM | GI50 [3]: 3.16 nM | GI50 [4]: 1.41 nM
